Patent US10894784B2, “Heteroarylbenzimidazole compounds” (BAYER PHARMA AKTIENGESELLSCHAFT, priority 2015, dated 2021)
pIC50: −log10 of the molar value.

Target: TBK1 (Homo sapiens (Human), UniProt Q9UHD2)
Experiment: TBK1 low ATP kinase assay (in vitro assay 1)
Type: biochemical
Details: in vitro assay 1, read-out: TBK1 low ATP kinase assay IC50

TBK1, sequence (Q9UHD2 whole entry): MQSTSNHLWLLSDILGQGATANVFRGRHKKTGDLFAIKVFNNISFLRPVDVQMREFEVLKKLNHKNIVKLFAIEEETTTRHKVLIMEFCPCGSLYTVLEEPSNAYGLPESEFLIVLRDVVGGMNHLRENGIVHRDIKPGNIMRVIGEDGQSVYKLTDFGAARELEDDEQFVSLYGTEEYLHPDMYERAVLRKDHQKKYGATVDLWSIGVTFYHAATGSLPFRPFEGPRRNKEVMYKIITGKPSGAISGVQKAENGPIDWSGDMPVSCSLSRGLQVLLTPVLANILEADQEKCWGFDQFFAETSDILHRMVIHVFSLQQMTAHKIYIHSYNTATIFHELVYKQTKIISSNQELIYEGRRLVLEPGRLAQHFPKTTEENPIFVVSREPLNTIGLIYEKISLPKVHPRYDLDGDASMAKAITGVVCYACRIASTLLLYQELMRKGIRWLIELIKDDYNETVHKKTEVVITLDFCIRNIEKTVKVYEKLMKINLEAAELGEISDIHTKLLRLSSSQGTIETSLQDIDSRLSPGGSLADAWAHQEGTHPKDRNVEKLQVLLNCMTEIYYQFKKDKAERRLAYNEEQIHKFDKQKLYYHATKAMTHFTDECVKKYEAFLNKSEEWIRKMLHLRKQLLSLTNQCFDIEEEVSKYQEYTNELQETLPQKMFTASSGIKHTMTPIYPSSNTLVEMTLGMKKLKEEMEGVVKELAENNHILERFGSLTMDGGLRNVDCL

Row | pIC50 | SMILES
1 | 6.83 | CC(c1ccnc(Nc2nc3ccc(-c4cc(C(F)(F)F)ncn4)c(F)c3[nH]2)c1)N1CCN(C(=O)C2(C(F)(F)F)CC2)CC1 (single isomer, unassigned) [Example 173.04, (4-{(1R or 1S)-1-[2-({7-fluoro-6-[6-(trifluoromethyl)pyrimidin-4-yl]-1H-benzimidazol-2-yl}amino)pyridin-4-yl]ethyl}piperazin-1-yl)[1-(trifluoromethyl)cyclopropyl]methanone]
2 | 5.65 | Cc1c(-c2ccc3nc(Nc4cc(CN5CCN(C(=O)C6CC6)CC5)ccn4)[nH]c3c2)ncnc1C(F)(F)F [Example 183.03, cyclopropyl(4-{[2-({6-[5-methyl-6-(trifluoromethyl)pyrimidin-4-yl]-1H-benzimidazol-2-yl}amino)pyridin-4-yl]methyl}piperazin-1-yl)methanone]
3 | 7.00 | CC(c1ccnc(Nc2nc3ccc(-c4ccnn4C(C)C)cc3[nH]2)c1)N1CCN(C(=O)C2CC2)CC1 (single isomer, unassigned) [Example 72.03, cyclopropyl(4-{(1R or 1S)-1-[2-({6-[1-(propan-2-yl)-1H-pyrazol-5-yl]-1H-benzimidazol-2-yl}amino)pyridin-4-yl]ethyl}piperazin-1-yl)methanone]
4 | 8.09 | COc1c(NC2CC2)ncnc1-c1ccc2nc(Nc3cc(CN4CCN(C(=O)CC(F)(F)F)CC4)ccn3)[nH]c2c1 [Example 108.02, 1-(4-{[2-({6-[6-(cyclopropylamino)-5-methoxypyrimidin-4-yl]-1H-benzimidazol-2-yl}amino)pyridin-4-yl]methyl}piperazin-1-yl)-3,3,3-trifluoropropan-1-one]
5 | 7.46 | CC(C)Nc1ncnc(-c2ccc3nc(Nc4cc(CN5CCN(C(=O)CC(F)(F)F)CC5)ccn4)[nH]c3c2)c1F [Example 193.02, 3,3,3-trifluoro-1-(4-{[2-({6-[5-fluoro-6-(propan-2-ylamino)pyrimidin-4-yl]-1H-benzimidazol-2-yl}amino)pyridin-4-yl]methyl}piperazin-1-yl)propan-1-one]
6 | 6.11 | Cc1noc(-c2ccc3nc(Nc4cc(CN5CCN(c6ncccn6)CC5)ccn4)[nH]c3c2)n1 [Example 101.05, 6-(3-methyl-1,2,4-oxadiazol-5-yl)-N-(4-{[4-(pyrimidin-2-yl)piperazin-1-yl]methyl}pyridin-2-yl)-1H-benzimidazol-2-amine]
7 | 7.89 | CC(C)Oc1cc(-c2ccc3nc(Nc4cc(CN5CCN(C(=O)CC(F)(F)F)CC5)ccn4)[nH]c3c2)ncn1 [Example 160.02, 3,3,3-trifluoro-1-(4-{[2-({6-[6-(propan-2-yloxy)pyrimidin-4-yl]-1H-benzimidazol-2-yl}amino)pyridin-4-yl]methyl}piperazin-1-yl)propan-1-one]
8 | 6.59 | COc1c(OCC2CC2)ncnc1-c1ccc2nc(Nc3cc(CN4CCN(C(=O)OC(C)(C)C)CC4)ccn3)[nH]c2c1 [Example 65.01.01, tert-butyl 4-{[2-({6-[6-(cyclopropylmethoxy)-5-methoxypyrimidin-4-yl]-1H-benzimidazol-2-yl}amino)pyridin-4-yl]methyl}piperazine-1-carboxylate]
9 | 8.12 | CN(c1cc(-c2ccc3nc(Nc4cc(CN5CCN(C(=O)C6CC6)CC5)ccn4)[nH]c3c2)ncn1)C1CC1 [Example 157.03, cyclopropyl[4-({2-[(6-{6-[cyclopropyl(methyl)amino]pyrimidin-4-yl}-1H-benzimidazol-2-yl)amino]pyridin-4-yl}methyl)piperazin-1-yl]methanone]
10 | 6.30 | COc1cnnc(-c2ccc3nc(Nc4cc(CN5CCN(C(=O)C6CC6)CC5)ccn4)[nH]c3c2)c1 [Example 47.02, cyclopropyl{4-[(2-{[6-(5-methoxypyridazin-3-yl)-1H-benzimidazol-2-yl]amino}pyridin-4-yl)methyl]piperazin-1-yl}methanone]
11 | 7.94 | CC(c1ccnc(Nc2nc3ccc(-c4cnn(CC5CC(F)(F)C5)c4)cc3[nH]2)c1)N1CCN(C(=O)CC(F)(F)F)CC1 (single isomer, unassigned) [Example 169.02, 1-{4-[(1R or 1S)-1-{2-[(6-{1-[(3,3-difluorocyclobutyl)methyl]-1H-pyrazol-4-yl}-1H-benzimidazol-2-yl)amino]pyridin-4-yl}ethyl]piperazin-1-yl}-3,3,3-trifluoropropan-1-one]
12 | 8.85 | CC(c1ccnc(Nc2nc3ccc(-c4cc(N5CCC5)ncn4)cc3[nH]2)c1)N1CCN(C(=O)OC(C)(C)C)CC1 (single isomer, unassigned) [Example 115.01, tert-butyl 4-{(1R or 1S)-1-[2-({6-[6-(azetidin-1-yl)pyrimidin-4-yl]-1H-benzimidazol-2-yl}amino)pyridin-4-yl]ethyl}piperazine-1-carboxylate]
13 | 6.45 | O=C(CC(F)(F)F)N1CCN(Cc2ccnc(Nc3nc4ccc(-c5ccsc5Cl)cc4[nH]3)c2)CC1 [Example 175.02, 1-{4-[(2-{[6-(2-chlorothiophen-3-yl)-1H-benzimidazol-2-yl]amino}pyridin-4-yl)methyl]piperazin-1-yl}-3,3,3-trifluoropropan-1-one]
14 | 8.70 | CC(c1ccnc(Nc2nc3ccc(-c4cnn(CC(F)F)c4)cc3[nH]2)c1)N1CCN(C(=O)C2CC2)CC1 (single isomer, unassigned) [Example 87.02, cyclopropyl(4-{(1R or 1S)-1-[2-({6-[1-(2,2-difluoroethyl)-1H-pyrazol-4-yl]-1H-benzimidazol-2-yl}amino)pyridin-4-yl]ethyl}piperazin-1-yl)methanone]
15 | 7.33 | COc1cnc(OCC2CC2)nc1-c1ccc2nc(Nc3cc(CN4CCN(C(=O)CC(F)(F)F)CC4)ccn3)[nH]c2c1 [Example 64.01.03, 1-(4-{[2-({6-[2-(cyclopropylmethoxy)-5-methoxypyrimidin-4-yl]-1H-benzimidazol-2-yl}amino)pyridin-4-yl]methyl}piperazin-1-yl)-3,3,3-trifluoropropan-1-one]
16 | 5.90 | COc1ccc(-c2ccc3nc(Nc4cc(CN5CCN(C(=O)OC(C)(C)C)CC5)ccn4)[nH]c3c2)cn1 [Example 13.01, tert-butyl 4-[(2-{[6-(6-methoxypyridin-3-yl)-1H-benzimidazol-2-yl]amino}pyridin-4-yl)methyl]piperazine-1-carboxylate]
17 | 8.32 | CCN(C)c1cc(-c2ccc3nc(Nc4cc(CN5CCN(C(=O)C6CC6)CC5)ccn4)[nH]c3c2)ncn1 [Example 148.03, cyclopropyl[4-({2-[(6-{6-[ethyl(methyl)amino]pyrimidin-4-yl}-1H-benzimidazol-2-yl)amino]pyridin-4-yl}methyl)piperazin-1-yl]methanone]
18 | 6.25 | O=C(CC(F)(F)F)N1CCN(Cc2ccnc(Nc3nc4ccc(-c5ncccn5)cc4[nH]3)c2)CC1 [Example 180.02, 3,3,3-trifluoro-1-{4-[(2-{[6-(pyrimidin-2-yl)-1H-benzimidazol-2-yl]amino}pyridin-4-yl)methyl]piperazin-1-yl}propan-1-one]
19 | 7.85 | CC(c1ccnc(Nc2nc3ccc(-c4cnn(CC5CCC5)c4)cc3[nH]2)c1)N1CCN(C(=O)OC(C)(C)C)CC1 (single isomer, unassigned) [Example 59.01.01, tert-butyl 4-{(1R or 1S)-1-[2-({6-[1-(cyclobutylmethyl)-1H-pyrazol-4-yl]-1H-benzimidazol-2-yl}amino)pyridin-4-yl]ethyl}piperazine-1-carboxylate]
20 | 8.08 | CC(C)Oc1cnccc1-c1ccc2nc(Nc3cc(CN4CCN(C(=O)CC5CC5)CC4)ccn3)[nH]c2c1 [Example 06.03, 2-cyclopropyl-1-(4-{[2-({6-[3-(propan-2-yloxy)pyridin-4-yl]-1H-benzimidazol-2-yl}amino)pyridin-4-yl]methyl}piperazin-1-yl)ethanone]
21 | 8.77 | COCc1cc(-c2ccc3nc(Nc4cc(C(C)N5CCN(C(=O)C6CC6)CC5)ccn4)[nH]c3c2)ncn1 (single isomer, unassigned) [Example 84.03, cyclopropyl(4-{(1R or 1S)-1-[2-({6-[6-(methoxymethyl)pyrimidin-4-yl]-1H-benzimidazol-2-yl}amino)pyridin-4-yl]ethyl}piperazin-1-yl)methanone]
22 | 8.15 | CC(C)Oc1cnccc1-c1ccc2nc(Nc3cc(CN4CCN(C(=O)C5CC5)CC4)ccn3)[nH]c2c1 [Example 06.02, cyclopropyl(4-{[2-({6-[3-(propan-2-yloxy)pyridin-4-yl]-1H-benzimidazol-2-yl}amino)pyridin-4-yl]methyl}piperazin-1-yl)methanone]
23 | 9.14 | CC(c1ccnc(Nc2nc3ccc(-c4cnn(CC5CC5(F)F)c4)c(Cl)c3[nH]2)c1)N1CCN(C(=O)C2CC2)CC1 (single isomer, unassigned) [Example 70.02, {4-[(1R or 1S)-1-(2-{[7-chloro-6-(1-{[(1RS)-2,2-difluorocyclopropyl]methyl}-1H-pyrazol-4-yl)-1H-benzimidazol-2-yl]amino}pyridin-4-yl)ethyl]piperazin-1-yl}(cyclopropyl)methanone]
24 | 7.47 | O=C(CC(F)(F)F)N1CCN(Cc2ccnc(Nc3nc4ccc(-c5ncnc(NCC6CC6)c5F)cc4[nH]3)c2)CC1 [Example 195.02, 1-[4-({2-[(6-{6-[(cyclopropylmethyl)amino]-5-fluoropyrimidin-4-yl}1H-benzimidazol-2-yl)amino]pyridin-4-yl}methyl)piperazin-1-yl]-3,3,3-trifluoropropan-1-one]
25 | 7.07 | O=C(C1CCC1)N1CCN(Cc2ccnc(Nc3nc4ccc(-c5ccn(CC6CC6)c(=O)c5)cc4[nH]3)c2)CC1 [Example 44.03, 4-{2-[(4-{[4-(cyclobutylcarbonyl)piperazin-1-yl]methyl}pyridin-2-yl)amino]-1H-benzimidazol-6-yl}-1-(cyclopropylmethyl)pyridin-2(1H)-one]
26 | 8.39 | CC(c1ccnc(Nc2nc3ccc(-c4cnn(CC5CC5(F)F)c4)cc3[nH]2)c1)N1CCN(C(=O)OC(C)(C)C)CC1 (single isomer, unassigned) [Example 55.01, tert-butyl 4-[(1R or 1S)-1-(2-{[6-(1-{[(1RS)-2,2-difluorocyclopropyl]methyl}-1H-pyrazol-4-yl)-1H-benzimidazol-2-yl]amino}pyridin-4-yl)ethyl]piperazine-1-carboxylate]
